Experimental data as given in US20130164386A1, “Targeting the Alpha3 Subnit of Na+-K+-ATPase for the Treatment of Cough with Sulfenamides” (THE JOHNS HOPKINS UNIVERSITY, priority 2010, published 2013).
Where two headings read alike, the source gives them in different places.

Key:
[1] = tested on: citric acid evoked coughing; assay type: in vivo, guinea pig; conditions: anesthetized guinea pigs
[2] = tested on: citric acid evoked coughing; experiment: citric acid evoked coughing in conscious (unanesthetized) guinea pigs; assay type: in vivo, guinea pig; conditions: 1 mg/mL, nebulized, delivered as an aerosol to the airways, listed as acid-activated omeprazole
[3] = tested on: citric acid evoked coughing; conditions: alpha3-selective concentration; cited from earlier work
[4] = tested on: Na+-K+ ATPase activity of cough receptor terminations; conditions: Mazzone et al., J. Neurosci. 2009; cited from earlier work
[5] = tested on: Na+-K+ ATPase activity of cough receptor terminations; experiment: intravital FM2-10 styryl dye labeling of cough receptor terminals in tracheal mucosa; parameters: species or system guinea pig; conditions: data not shown
From the text: FIGS. 1A-1D show: (A) selective immunohistochemical labeling of cough receptor terminations in the guinea pig tracheal mucosa with antisera to the alpha3 subunit of Na+K+-ATPase; (B) the cough receptor terminals innerating the tracheal mucosa also are brilliantly and selectively labeled intravitally by the styryl dye FM2-10. This staining method depends upon active Na+-K+ ATPase.
Mazzone, S. B, et al., “Selective Expression of a Sodium Pump Isozyme by Cough Receptors and Evidence for Its Essential Role in Regulating Cough,” J. Neurosci., 2009, 29(43):13662-13671. Thus, the cough receptors uniquely express the alpha3 subunit of the sodium pump in their peripheral terminals, and these terminals display high basal sodium pump activity based on FM2-10 fluorescence.
Referring now to FIGS. 1A-1D, it is shown that: (A) selective immunohistochemical labeling of cough receptor terminations in the guinea pig tracheal mucosa with antisera to the alpha3 subunit of Na+K+-ATPase; (B) the cough receptor terminals innerating the tracheal mucosa also are brilliantly and selectively labeled intravitally by the styryl dye FM2-10. Styryl dyes are known to produce fluorescence intensity proportional to Na+-K+-ATPase activity. Consistent with this notion, FM2-10 labeling of the cough receptor terminations is prevented by the sodium pump inhibitor ouabain (not shown). […]

cough receptors = conditions: in vitro; alpha3-selective concentration; cited from earlier work

Structure (SMILES)	citric acid evoked coughing ([1]; topically applied to the tracheal mucosa, 0.1 mM, listed as acid activated omeprazole)	citric acid evoked coughing [2]	blood pressure ([1]; dose 30 μg/kg lv)	citric acid evoked coughing ([1]; dose 30 μg/kg lv)	heart rate ([1]; dose 30 μg/kg lv)	respiratory pattern at eupnea ([1]; dose 30 μg/kg lv)	coughing evoked in vivo [3]	FM2-10 labeling of the cough receptors [4]	FM2-10 labeling of the cough receptor terminations [5]	high frequency action potential patterning in cough receptors (cough receptors)
COc1ccc2[nH]c([S+]([O-])Cc3ncc(C)c(OC)c3C)nc2c1 (stereo not shown) [omeprazole]	nearly abolished	markedly inhibits	–	–	–	–	–	–	–	–
C[C@@H]1O[C@@H](O[C@H]2C[C@@H](O)[C@]3(CO)[C@H]4[C@H](O)C[C@]5(C)[C@@H](C6=CC(=O)OC6)CC[C@]5(O)[C@@H]4CC[C@]3(O)C2)[C@H](O)[C@H](O)[C@H]1O [ouabain]	–	–	no effect	nearly abolished	no effect	no effect	reduced substantially	prevented	prevented	reduced substantially
